Tests used:
Type in all cases: in vivo
[1] = test system: Triticum aestivum (TRZAS); assay: D. Pre-emergence effect on useful plants, TRZAS; details: useful plant
Source text: (§1) Seeds of monocotyledonous and dicotyledonous weed plants and crop plants were placed in plastic or organic planting pots and covered with soil. The compounds of the invention, formulated in the form of wettable powders (WP) or as emulsion concentrates (EC), were then applied to the surface of the covering soil as aqueous suspension or emulsion with addition of 0.5% additive at a water application rate equivalent to 600 l/ha (converted). After the treatment, the pots were placed in a greenhouse and kept under good growth conditions for the test plants. After about 3 weeks, the efficacy of the preparations was scored visually in comparison with untreated controls as percentages. For example, • 100% efficacy=plants have died, • 0% efficacy=like untreated control plants.
Tables D1a to D5b below show the effects of selected compounds of the general formula (I) according to table 1 on various useful plants at an application rate corresponding to 320 g/ha or less, which were obtained by the experimental procedure mentioned above.

Setaria viridis (SETVI) = assay: A. Herbicidal pre-emergence efficacy, SETVI
How it was run: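 Pre-emergence soil-surface spray in sandy loam pots, WP/EC in water plus 0.5% additive, 600 L/ha. Visual % damage rating after about 3 weeks in greenhouse vs. untreated; 0% = control-like, 100% = dead plants. Rates up to 1280 g/ha.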

[2] = test system: Abutilon theophrasti (ABUTH); assay: B. Herbicidal post-emergence efficacy, ABUTH; details: rated visually after about 3 weeks
How it was run: (§2)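 First, seeds were sown in sandy loam and grown 2 to 3 weeks under controlled greenhouse conditions. Next, foliage at the one-leaf stage received the formulated compound in water with 0.5% additive (600 L/ha, 1280 g/ha or less). Finally, damage was rated visually after about 3 weeks against untreated plants.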

[3] = test system: Polygonum convolvulus (POLCO); assay: C. Herbicidal pre-emergence efficacy, POLCO; details: scored after about 3 weeks
Source text: as §1
(§3) Tables C1a to C14b below show the effects of selected compounds of the general formula (I) according to table 1 on various harmful plants at an application rate corresponding to 320 g/ha or less, which were obtained by the experimental procedure mentioned above.

[4] = test system: Triticum aestivum (TRZAS); assay: F. Post-emergence effect on useful plants, TRZAS; details: useful plant
How it was run: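 Crop plants grown in sandy loam in the greenhouse were sprayed at the one-leaf stage, 2-3 weeks after sowing, with WP or EC formulations plus 0.5% additive at 600 l/ha water. Damage was scored visually after about 3 weeks against untreated controls (0% = like control, 100% = dead).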

[5] = test system: Abutilon theophrasti (ABUTH); assay: C. Herbicidal pre-emergence efficacy, ABUTH; details: scored after about 3 weeks
Source text: as §1, §3

[6] = test system: Amaranthus retroflexus (AMARE); assay: B. Herbicidal post-emergence efficacy, AMARE
How it was run: as §2

Lolium rigidum (LOLRI) = assay: C. Herbicidal pre-emergence efficacy, LOLRI; details: scored after about 3 weeks
How it was run: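 Pre-emergence test: formulated compounds sprayed as aqueous suspension or emulsion with 0.5% additive at 600 l/ha onto soil covering sown seeds, at rates corresponding to 320 g/ha or less. After about 3 weeks in greenhouse, efficacy scored visually as percent versus untreated controls (100% = plants dead).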

Pre-emergence efficacy against TRZAS in % ([1]; application rate 80 g/ha) | Post-emergence efficacy against TRZAS in % ([4]; application rate 80 g/ha) | Structure (SMILES) | Pre-emergence efficacy against TRZAS in % ([1]; application rate 320 g/ha) | Pre-emergence efficacy against SETVI (Setaria viridis (SETVI); dosage 320 g/ha) | Pre-emergence efficacy against SETVI (Setaria viridis (SETVI); dosage 1280 g/ha) | Post-emergence efficacy against ABUTH in % ([2]; 320 g/ha) | Post-emergence efficacy against ABUTH in % ([2]; 1280 g/ha) | Pre-emergence efficacy against POLCO ([3]; 80 g/ha) | Pre-emergence efficacy against POLCO ([3]; 320 g/ha) | Post-emergence efficacy against TRZAS in % ([4]; application rate 320 g/ha) | Pre-emergence efficacy against ABUTH ([5]; 320 g/ha) | Post-emergence efficacy against AMARE ([6]; 80 g/ha) | Post-emergence efficacy against AMARE ([6]; 320 g/ha) | Post-emergence efficacy against AMARE ([6]; 1280 g/ha) | Post-emergence efficacy against ABUTH in % ([2]; 80 g/ha) | Pre-emergence efficacy against SETVI (Setaria viridis (SETVI); dosage 80 g/ha) | Pre-emergence efficacy against ABUTH ([5]; 80 g/ha) | Pre-emergence efficacy against LOLRI (Lolium rigidum (LOLRI); 80 g/ha) | Pre-emergence efficacy against LOLRI (Lolium rigidum (LOLRI); 320 g/ha)
0% | 0% | CC(C)CCS(=O)(=O)Oc1ccccc1Oc1ncc(Cl)cn1 [Example I-25] | 0% | 100% | 100% | 90% | 100% | 80% | 90% | 0% | 100% | 90% | 100% | 100% |  |  |  |  | 
 |  | O=S(=O)(CCC(F)(F)F)Oc1c(Br)cccc1Oc1ncc(Cl)cn1 [Example I-31] |  | 100% | 100% | 100% | 100% |  |  |  |  | 100% | 100% | 100% | 90% |  |  |  | 
0% | 0% | Cc1cccc(Oc2ncc(Cl)cn2)c1OS(=O)(=O)CC1CC(F)(F)C1 [Example I-74] |  | 90% | 100% | 100% | 100% |  | 90% |  | 90% | 100% | 100% | 100% | 100% |  |  |  | 
20% | 20% | O=S(=O)(CCl)Oc1ccccc1Oc1ncc(Cl)cn1 [Example I-9] |  | 100% | 100% | 90% | 90% |  | 90% |  |  | 90% | 100% | 100% |  |  |  |  | 
 |  | O=S(=O)(CC1CC1(Cl)Cl)Oc1c(F)cccc1Oc1ncc(Cl)cn1 (stereo not drawn) [Example I-57] |  | 100% | 100% | 90% | 90% |  |  |  |  | 90% | 90% | 90% | 90% | 90% |  |  | 
0% | 0% | CCCCCS(=O)(=O)Oc1ccccc1Oc1ncc(Cl)cn1 [Example I-24] | 0% | 100% | 100% | 90% | 90% |  | 80% | 0% |  | 90% | 100% | 100% |  |  |  |  | 
 |  | O=S(=O)(CCCC(F)(F)F)Oc1c(F)cccc1Oc1ncc(F)cn1 [Example I-42] |  | 100% | 100% | 100% | 100% | 100% | 100% |  | 100% |  |  |  | 100% | 100% | 100% | 100% | 100%

Structure (SMILES) | Pre-emergence efficacy against TRZAS in % ([1]; application rate 80 g/ha) | Post-emergence efficacy against TRZAS in % ([4]; application rate 80 g/ha) | Pre-emergence efficacy against TRZAS in % ([1]; application rate 320 g/ha) | Pre-emergence efficacy against SETVI (Setaria viridis (SETVI); dosage 320 g/ha) | Pre-emergence efficacy against SETVI (Setaria viridis (SETVI); dosage 1280 g/ha) | Post-emergence efficacy against ABUTH in % ([2]; 320 g/ha) | Post-emergence efficacy against ABUTH in % ([2]; 1280 g/ha) | Pre-emergence efficacy against POLCO ([3]; 80 g/ha) | Pre-emergence efficacy against POLCO ([3]; 320 g/ha) | Post-emergence efficacy against TRZAS in % ([4]; application rate 320 g/ha) | Pre-emergence efficacy against ABUTH ([5]; 320 g/ha) | Post-emergence efficacy against AMARE ([6]; 80 g/ha) | Post-emergence efficacy against AMARE ([6]; 320 g/ha) | Post-emergence efficacy against AMARE ([6]; 1280 g/ha) | Post-emergence efficacy against ABUTH in % ([2]; 80 g/ha) | Pre-emergence efficacy against SETVI (Setaria viridis (SETVI); dosage 80 g/ha) | Pre-emergence efficacy against ABUTH ([5]; 80 g/ha) | Pre-emergence efficacy against LOLRI (Lolium rigidum (LOLRI); 80 g/ha) | Pre-emergence efficacy against LOLRI (Lolium rigidum (LOLRI); 320 g/ha)
O=S(=O)(CCCCl)Oc1cccc(F)c1Oc1ncc(Cl)cn1 [Example I-13] | 10% | 10% | 10% |  | 100% |  | 90% |  |  | 10% | 90% |  | 90% | 100% |  |  |  |  | 
O=S(=O)(CCCC(F)(F)F)Oc1c(Cl)cccc1Oc1ncc(Br)cn1 [Example I-34] | 0% | 0% | 0% | 90% | 100% | 100% | 100% |  | 100% | 20% | 90% | 100% | 100% | 100% | 90% | 90% | 80% |  | 

From patent publication US20240174618A1, “SUBSTITUTED (2-HETEROARYLOXYPHENYL)SULFONATES, SALTS THEREOF AND THEIR USE AS HERBICIDAL AGENTS” (Bayer Aktiengesellschaft, priority 2021, published 2024)
